Results: PMC5663395, “Chemical Validation of Methionyl-tRNA Synthetase as a Druggable Target in Leishmania donovani” (ACS Infectious Diseases, 2017)
Values joined by “and” are separate entries in the source; they are usually repeats but may differ in a detail not shown here. Equal entries are not always repeated. Where two headings read alike, the source gives them in different places.

Legend:
[1] = test system: protein synthesis in Leishmania tarentolae cell extract; experiment: Leishmania tarentolae in vitro translation (eGFP expression in cell extract); type: biochemical; details: L. tarentolae extract, read-out: EC50 inhibition of eGFP protein synthesis
Description: Crystals of TbMetRS:Met were obtained by incubating TbMetRS with 10 mM methionine and 1 mM TCEP before crystallisation by sitting drop vapour diffusion against a reservoir solution containing 2.0-2.3 M Ammonium Sulphate, 0.2 M NaCl, 0.1 M Na Cacodylate pH 6.0-6.6. Single crystals grew after 3-4 days incubation at 18 °C. To obtain ternary TbMetRS:Met:Ligand complexes, TbMetRS:Met crystals were soaked for 10-30 seconds in a 10 μl drop consisting of 1 μl of ligand (20 mM in 20% DMSO), 4 μl reservoir solution and 5 μl glycerol. Crystals were flash frozen immediately in liquid nitrogen in preparation for data collection.
Diffraction data were measured at Diamond Light Source beamline I02. […]
Protein translation in a Leishmania cell extract was studied using a commercially available cell-free protein expression kit (Jena Bioscience). Reactions were carried out in black 384-well, small-volume plates (Greiner) in 10 µl reaction volumes containing 7 µl L. tarentolae cell extract, 1 µl eGFP DNA template and 2 µl nuclease free water (‘no DNA’ wells were included as negative controls). eGFP expression was monitored over time using a BMG PheraStar plate reader (Excitation 485 nm; […]
The effect of DDD806905 on mitochondrial protein synthesis was determined by BioDuro using the MitoBiogenesisTM In-Cell ELISA Kit (Abcam). […] In the assay the levels of SDH-A and COX-1 are measured in H9C2 cells. […]

[2] = test system: Leishmania donovani liver parasite burden; experiment: Mouse visceral leishmaniasis efficacy model; details: 50 mg/kg oral twice daily for 10 days, 50 mg/kg
[3] = THP-1 cytotoxicity readout of intramacrophage assay; type: cell-based; details: human, Leishmania infected, PMA-differentiated THP-1 cells; read-out: THP-1 EC50 (toxicity)
Description: carried out as described above using 5%, 10% and 20% FBS in the media. To examine the effect of the methionine concentration on the potency of DDD806905 parasites were grown in the presence of drug and in the presence (or absence) of 20-fold excess methionine (0.3 g/l). IC50 curve fitting was undertaken in GraFit version 6.0 (Erithacus Software) using a four-parameter logistic dose-response curve (equation 6), with s the slope.
Leishmania Axenic Amastigote Assay
The Leishmania axenic amastigote assay was performed using the method published in Nühs et al 15.
Leishmania Intracellular Amastigote Assay
The intramacrophage Leishmania assay was performed using a modified version of the method described in De Rycker et al 16. […]
amphotericin B was included. Controls were as follows: columns 11 and 12: DMSO, columns 23 and 24: amphotericin B (final concentration 2 µM). 350 nl of compound was pre-dispensed into 384-well sterile intermediary plates. To the intermediary plates, 35 µl of THP-1 media was added and plates were shaken for >5 min to ensure complete mixing. […]
Amastigotes were incubated in the presence of THP-1 macrophages for 16 h. […] For each well, i) THP-1 cell count (cytotoxicity readout) and ii) average number of amastigotes per cell (potency readout) were […]

[4] = in vivo; details: female, Balb/c, mouse, iv

SMILES: Cl.Cl.O=c1nc(NCCCNCc2cc3c(Cl)cc(Cl)cc3[nH]2)[nH]c2ccccc12 [DDD806905, 2-((3-(((4,6-dichloro-1H-indol-2-yl)methyl)amino)propyl)amino)quinazolin-4(1H)-one dihydrochloride]
- EC50 ([1]; additional 1.5 mM methionine): 12 µM
- EC50 ([1]; no additional methionine): 2.2 µM
- reduction (knock-down) of liver parasite burden (LDU) vs vehicle [2]: 19% and 19.4%
- EC50 at 96 h [3]: 10 µM
- Vd [4]: 6 L/kg
